According to patent publication US20240252581A1, “COMPOSITIONS AND METHODS FOR TREATING RESPIRATORY DISTRESS” (S.I.S. SHULOV INNOVATIVE SCIENCE LTD., priority 2021, published 2024):
Where “and” joins values, the source holds several entries; their conditions need not be identical. Identical values can stand only once. Square brackets hold non-standard residues; d marks the D form. Peptide text beside a SMILES is read from it. * marks the point of attachment. pGlu = O=C1CC[C@@H](C(=O)O)N1; Octanoyl = CCCCCCCC(=O)*

Tested on: inflammatory cytokines in BALF
Test: LPS-induced acute lung injury / ARDS mouse model: BALF cytokine concentrations (multiplex ELISA)
Format: in vivo, BALB/c mice
Design: key to INF-γ / IL-1α / IL-5 / IL-6 / IL-10 / IL-12 / IL-17 / KC / MCP-1 / TNF-α / CXCL10 / RANTES / G-CSF / CCL3: (+) indicates activation; (−) indicates inhibition
Description: In order to test the efficacy of ZEP3 sodium on lung inflammation, the lipopolysaccharide (LPS)-induced acute lung injury model was used. In particular, LPS was administered intratracheally at doses of 10 or 40 mg/kg body weight (BW) corresponding to 0.2 or 0.8 mg/mouse, respectively.
ZEP3 sodium was administered by inhalation (INH) at doses of 25 or 250 mg/kg BW (0.5 or 5 mg/mouse, respectively), or intratracheally (IT) at doses of 5 or 20 mg/kg BW (0.1 or 0.4 mg/mouse, respectively) 6 hours after LPS administration and its effect was measured 72 hours following administration in the branchial alveolar fluid (BALF) using FACS instrumentation.
To detect cytokine release in lungs fluid, cytokine concentrations were assessed in BALF samples using high sensitivity multiplex ELISA assays for: IFN-γ, IL-1α, IL-5, IL-6, IL-10, IL-12 (p70), IL-17A, KC, MCP-1, TNF-α, IP-10, RANTES, G-CSF, MIP-1α and RANTES. ZEP3Na administered intratracheally at 0.1 and 0.4 mg per mouse after instillation of 0.2 mg LPS inhibited the concentration of following interleukins: IL-1α, IL-6, IL-10, IL-12, IL-17, KC, MCP-1, TNF-α and G-CSF.

[1] = Group 9: LPS 0.2 mg + ZEP3Na 0.4 mg IT, BALF, group mean
[2] = Group 9: LPS 0.2 mg + ZEP3Na 0.4 mg IT, BALF, individual mice
[3] = LPS 0.2 mg + ZEP3Na (IT) 0.1 mg, BALF
[4] = LPS 0.2 mg + ZEP3Na (IT) 0.4 mg, BALF
[5] = LPS 0.8 mg + ZEP3Na (INH) 0.5 mg, BALF
[6] = LPS 0.8 mg + ZEP3Na (INH) 5 mg, BALF
[7] = LPS 0.8 mg + ZEP3Na (IT) 0.1 mg, BALF
[8] = LPS 0.8 mg + ZEP3Na (IT) 0.4 mg, BALF

CCCCCCCC(=O)NCCCC[C@H](NC(=O)[C@H](Cc1c[nH]c2ccccc12)NC(=O)[C@H](CC(N)=O)NC(=O)[C@@H]1CCC(=O)N1)C(=O)O [ZEP3Na, pGlu-Asn-Trp-Lys(Octanoyl)-ONa] ([pGlu]NWK(Octanoyl)-OH)
KC [1]: 751.10 pg/mL | MCP-1 [1]: 180.27 pg/mL | G-CSF [2]: 176.85 pg/mL and 200.57 pg/mL and 585.70 pg/mL and 211.19 pg/mL and 8.45 pg/mL and 138.72 pg/mL and 227.63 pg/mL | G-CSF (pg/ml) [2]: undetected | IL-12 (p70) [2]: 408.22 pg/ml and 471.74 pg/ml and 15.41 pg/ml (2×) and 262.69 pg/ml and 11.53 pg/ml and 8.09 pg/ml and 115.45 pg/ml and 140.60 pg/ml | IL-17A [2]: 386.05 pg/mL and 1361.97 pg/mL and 15.26 pg/mL and 3386.75 pg/mL and 22.20 pg/mL and 4.57 pg/mL and 2.99 pg/mL and 21.13 pg/mL and 55.67 pg/mL | KC [2]: 1154.03 pg/mL and 1559.44 pg/mL and 1143.16 pg/mL and 1153.90 pg/mL and 127.59 pg/mL and 63.82 pg/mL and 75.31 pg/mL and 656.41 pg/mL and 826.24 pg/mL | MCP-1 [2]: 240.17 pg/mL and 115.81 pg/mL and 823.17 pg/mL and 151.55 pg/mL and 14.15 pg/mL and 102.63 pg/mL and 174.95 pg/mL | MCP-1 (pg/ml) [2]: undetected | CXCL10 [3]: − | G-CSF [3]: − | IL-1α [3]: − | IL-6 [3]: − | IL-10 [3]: − | IL-12 [3]: − | IL-17 [3]: − | KC [3]: − | MCP-1 [3]: − | TNF-α [3]: − | CXCL10 [4]: − | G-CSF [4]: − | IL-1α [4]: − | IL-6 [4]: − | IL-10 [4]: − | IL-12 [4]: − | IL-17 [4]: − | KC [4]: − | MCP-1 [4]: − | TNF-α [4]: − | CCL3 [5]: − | CXCL10 [5]: − | G-CSF [5]: − | IL-1α [5]: − | IL-5 [5]: − | IL-6 [5]: − | IL-10 [5]: + | IL-12 [5]: − | IL-17 [5]: − | INF-γ [5]: − | KC [5]: − | MCP-1 [5]: − | RANTES [5]: − | TNF-α [5]: − | CCL3 [6]: − | CXCL10 [6]: − | G-CSF [6]: − | IL-1α [6]: − | IL-5 [6]: − | IL-6 [6]: − | IL-10 [6]: + | IL-12 [6]: − | IL-17 [6]: − | INF-γ [6]: − | KC [6]: − | MCP-1 [6]: − | RANTES [6]: − | TNF-α [6]: − | IL-12 [7]: − | TNF-α [7]: − | IL-12 [8]: − | TNF-α [8]: − | levels of INF-γ, IL-1α, IL-5, IL-6, IL-12, IL-17, KC, MCP-1, TNF-α, CXCL10, RANTES, G-CSF, and CCL3 (administered by inhalation following LPS instillation): significantly inhibited the expression and reduced the levels | levels of IL-1α, IL-6, IL-10, IL-12, IL-17, KC, MCP-1, TNF-α, CXCL10, and G-CSF (administered intratracheally following LPS instillation): significantly inhibited the expression and reduced the levels | concentration of IL-1α, IL-6, IL-10, IL-12, IL-17, KC, MCP-1, TNF-α and G-CSF (intratracheally at 0.1 and 0.4 mg per mouse after instillation of 0.2 mg LPS, BALF): inhibited
